Measured values: patent US11591476B2, “In-vivo probe for real time longitudinal monitoring of inducible nitric-oxide synthase in living cells and animals” (priority 2016, dated 2023)

Experiment: Fluorescence excitation and emission maxima of the probes
Assay type: physicochemical
Description: The probe of the present disclosure can selectively bind iNOS enzyme and produce a perceptible change in fluorescence upon binding.

CN1c2cc3c(cc2C(CS(=O)(=O)[O-])=CC1(C)C)C(c1c(Cl)c(SCC(=O)NCCCCCC(=O)N2CCN(c4ccnc(-n5ccnc5)n4)C(CC(=O)NCc4ccc5c(c4)OCO5)C2)c(Cl)c(Cl)c1C(=O)O)=c1cc2c(cc1O3)=[N+](C)C(C)(C)C=C2CS(=O)(=O)O (centres unmarked) [PIA-610, Pyrimidine Imidazole Alexa-Fluor-610]
emission wavelength: 630 nm | maximum excitation wavelength: 610 nm
